Assay results: patent US20210032253A1, “PYRAZOLO[1,5-A][1,3,5]TRIAZINE-2-AMINE DERIVATIVE, PREPARATION METHOD THEREFOR AND MEDICAL USE THEREOF” (JIANGSU HENGRUI MEDICINE CO., LTD., priority 2018, published 2021)

Key:
Assay type in all cases: cell-based
[1] = biological target: T1, adenosine A2a receptor (A2aR) (Homo sapiens, UniProt P29274); assay: Inhibition of adenosine A2a receptor cAMP signaling pathway in CHO-K1/A2aR cells (HTRF cAMP dynamic 2 kit); conditions: Table 1, 20 nM ethylcarbazole
T1 construct: expressed in transfected cells; host or cells: CHO-K1
Excerpt: (§1) Test Example 1. Determination of the inhibitory activities of the compounds of the present disclosure on the adenosine A2a receptor (A2aR) cAMP signaling pathway, the adenosine A1 receptor (A1R) cAMP signaling pathway and the adenosine A3 receptor (A3R) cAMP signaling pathway.
(§2) The inhibitory activities of the compounds of the present disclosure on the adenosine A2a receptor (A2aR) cAMP signaling pathway, the adenosine A1 receptor cAMP signaling pathway and the adenosine A3 receptor cAMP signaling pathway were determined by the following methods. The experimental method is briefly described as follows:
CHO-K1/A2aR cells were cultured in DMEM/F12 medium containing 10% fetal bovine serum and 800 μg/mL Zeocin™. The cells were digested with the cell dissociation buffer during the experiment. The cells were resuspended in the HBSS buffer containing 20 mM HEPES and 0.1% bovine serum albumin and counted, and the cell density was adjusted to 10^6 cells/mL. In 384-well plates, each well was added with 5 μL of the cell suspension, and 2.5 µL of test compounds (4× concentration) formulated with the HBSS buffer containing 20 mM HEPES, 0.1% bovine serum albumin, 54 μM rolipram and 2.7 U/mL adenosine deaminase, and the plates were incubated at room temperature for 30 minutes. Each well was then added with 2.5 μL of ethylcarbazole (4× concentration) formulated with the balanced salt buffer containing 20 mM HEPES, 0.1% bovine serum albumin, 54 μM rolipram and 2.7 U/mL adenosine deaminase, and the plates were incubated at room temperature for 30 minutes. The final concentrations of the compounds were: 10000, 2000, 400, 80, 16, 3.2, 0.64, 0.128, 0.0256, 0.00512, and 0.001024 nM. The final concentration of ethylcarbazole was 20 nM. Intracellular cAMP concentration was determined with cAMP dynamic 2 kits. cAMP-d2 and Anti-cAMP—Eu-Cryptate were diluted respectively with the cAMP lysis buffer at a ratio of 1:4. Each well was added with 5 μL of the diluted cAMP-d2, followed by addition of 5 μL of the diluted Anti-cAMP—Eu-Cryptate, and the plates were incubated at room temperature in the dark for 1 hour. The HTRF signal values were read by the PHERAstar multi-function microplate reader.

[2] = biological target: T2, adenosine A3 receptor (A3R) (Homo sapiens, UniProt P0DMS8); assay: Inhibition of adenosine A3 receptor cAMP signaling pathway in CHO-K1/A3R cells (HTRF cAMP dynamic 2 kit); conditions: Table 3; for IC50: CHO-K1/A3R cells, cAMP, 10 μM forskolin, 5 nM 2Cl-IB-MECA; for IC50 ratio (A3R/A2aR): selectivity A3R over A2aR
T2 construct: expressed in transfected cells; host or cells: CHO-K1
T2 sequence (P0DMS8 1-318): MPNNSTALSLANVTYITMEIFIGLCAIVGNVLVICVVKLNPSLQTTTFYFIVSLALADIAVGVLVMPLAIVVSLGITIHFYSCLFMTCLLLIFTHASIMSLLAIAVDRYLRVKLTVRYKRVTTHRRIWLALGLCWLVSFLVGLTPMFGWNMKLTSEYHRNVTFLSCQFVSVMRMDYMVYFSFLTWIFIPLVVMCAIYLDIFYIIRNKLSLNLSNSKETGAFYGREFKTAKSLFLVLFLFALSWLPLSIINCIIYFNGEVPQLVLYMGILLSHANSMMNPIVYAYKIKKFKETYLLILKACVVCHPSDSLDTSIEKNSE
Excerpt: as §1, §2
CHO-K1/A3R cells were cultured in DMEMIF12 medium containing 10% fetal bovine serum and 10 μg/mL puromycin. The cells were digested with the cell dissociation buffer during the experiment. The cells were resuspended in the HBSS buffer containing 20 mM HEPES and 0.1% bovine serum albumin and counted, and the cell density was adjusted to 5×10^5 cells/mL. In 384-well plates, each well was added with 12.5 μL of the cell suspension, and 6.25 μL of the test compounds (4× concentration) formulated with the HBSS buffer containing 20 mM HEPES, 0.1% bovine serum albumin, 54 μM rolipram and 2.7 U/mL adenosine deaminase, and the plates were incubated at room temperature for 30 minutes. Each well was then added with 6.25 μL of forskolin and 2Cl-IB-MECA (4× concentration) formulated with the HBSS buffer containing 20 mM HEPES, 0.1% bovine serum albumin, […] rolipram and 2.7 U/mL adenosine deaminase, and the plates were incubated at room temperature for 30 minutes. The final concentrations of the compounds were: 100000, 10000, 1000, 100, 10, 1, 0.1 and 0 nM. The final concentration of forskolin was 10 μM. The final concentration of 2Cl-IB-MECA was 5 nM. Intracellular cAMP concentration was determined with cAMP dynamic 2 kits. cAMP-d2 and Anti-cAMP—Eu-Cryptate were diluted respectively with the cAMP lysis buffer at a ratio of 1:4. Each well was added with 12.5 μL of the diluted cAMP-d2, followed by addition of 12.5 μL of the diluted Anti-cAMP—Eu-Cryptate, and the plates were incubated at room temperature in the dark for 1 hour. The HTRF signal values were read by the PHERAstar multi-function microplate reader. IC50 values for the inhibitory activities of the compounds were calculated by Graphpad Prism software, and are shown in Table 3.

[3] = biological target: T3, adenosine A1 receptor (A1R) (Homo sapiens, UniProt P30542); assay: Inhibition of adenosine A1 receptor cAMP signaling pathway in CHO-K1/A1R cells (HTRF cAMP dynamic 2 kit); conditions: Table 2; for IC50: CHO-K1/A1R cells, cAMP, 10 μM forskolin, 10 nM CPA; for IC50 ratio (A1R/A2aR): selectivity A1R over A2aR
T3 construct: expressed in transfected cells; host or cells: CHO-K1
T3 sequence (P30542 1-326): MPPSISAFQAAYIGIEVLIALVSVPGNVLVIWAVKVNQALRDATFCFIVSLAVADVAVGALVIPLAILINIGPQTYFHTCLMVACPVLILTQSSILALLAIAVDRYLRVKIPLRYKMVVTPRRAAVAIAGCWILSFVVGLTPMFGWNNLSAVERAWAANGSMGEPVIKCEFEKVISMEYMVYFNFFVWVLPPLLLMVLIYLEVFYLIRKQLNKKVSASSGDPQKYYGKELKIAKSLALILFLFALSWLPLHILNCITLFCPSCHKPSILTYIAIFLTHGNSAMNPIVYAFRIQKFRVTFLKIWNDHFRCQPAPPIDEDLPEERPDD
Excerpt: as §1, §2
CHO-K1/A1R cells were cultured in DMEMIF12 medium containing 10% fetal bovine serum and 1 mg/mL G418. The cells were digested with the cell dissociation buffer during the experiment. The cells were then resuspended in the HBSS buffer containing 20 mM HEPES and 0.1% bovine serum albumin and counted, and the cell density was adjusted to 5×10^5 cells/mL. In 384-well plates, each well was added with 12.5 μL of the cell suspension, and 6.25 μL of the test compounds (4× concentration) formulated with the HBSS buffer containing 20 mM HEPES, 0.1% bovine serum albumin, 54 μM rolipram and 2.7 U/mL adenosine deaminase, and the plates were incubated at room temperature for 30 minutes. Each well was then added with 6.25 μL of forskolin and N6-cyclopentyladenosine (4× concentration) formulated with the HBSS buffer containing 20 mM HEPES, 0.1% bovine serum albumin, 54 μM rolipram and 2.7 U/mL adenosine deaminase, and the plates were incubated at room temperature for 30 minutes. The final concentrations of the compounds were: 100000, 10000, 1000, 100, 10, 1, 0.1 and 0 nM. The final concentration of forskolin was 10 μM. The final concentration of CPA was 10 nM. Intracellular cAMP concentration was determined with cAMP dynamic 2 kits. cAMP-d2 and Anti-cAMP—Eu-Cryptate were diluted respectively with the cAMP lysis buffer at a ratio of 1:4. Each well was added with 12.5 μL of the diluted cAMP-d2, followed by addition of 12.5 μL of the diluted Anti-cAMP—Eu-Cryptate, and the plates were incubated at room temperature in the dark for 1 hour. The HTRF signal values were read by the PHERAstar multi-function microplate reader.

T1 sequence (P29274 whole entry): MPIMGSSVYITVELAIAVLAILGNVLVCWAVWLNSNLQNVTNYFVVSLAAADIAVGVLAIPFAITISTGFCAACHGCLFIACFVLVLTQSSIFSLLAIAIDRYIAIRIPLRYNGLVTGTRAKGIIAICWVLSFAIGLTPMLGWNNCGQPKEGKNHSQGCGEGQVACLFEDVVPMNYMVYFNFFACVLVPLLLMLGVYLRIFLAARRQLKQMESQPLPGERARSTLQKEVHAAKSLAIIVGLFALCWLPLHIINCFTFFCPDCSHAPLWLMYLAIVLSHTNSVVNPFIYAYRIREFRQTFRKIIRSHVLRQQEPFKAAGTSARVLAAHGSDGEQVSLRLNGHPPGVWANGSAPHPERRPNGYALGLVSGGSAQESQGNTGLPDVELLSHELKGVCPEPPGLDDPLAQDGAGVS

SMILES	IC50 [1]	IC50 [2]	IC50 ratio (A3R/A2aR) [2]	IC50 [3]	IC50 ratio (A1R/A2aR) [3]
Cc1ccc(-c2nc(N)nc3c(Cc4ccccc4F)cnn23)o1 [Example 4, 8-(2-Fluorobenzyl)-4-(5-methylfuran-2-yl)pyrazolo[1,5-a][1,3,5]triazin-2-amine]	0.14 nM	> 10000 nM	>10^4		
Cc1ccc(-c2nc(N)nc3c(Nc4cccc(CO[C@H]5CCOC5)c4F)cnn23)o1 [Example 26, (S)—N^8-(2-fluoro-3-(((tetrahydrofuran-3-yl)oxy)methyl)phenyl)-4-(5-methylfuran-2-yl)pyrazolo[1,5-a][1,3,5]triazine-2,8-diamine]	1.66 nM	5300 nM	>10^3	1210 nM	731^
COCc1cccc(Cc2cnn3c(-c4ccc(C)o4)nc(N)nc23)n1 [Example 13, 8-((6-(Methoxymethyl)pyridin-2-yl)methyl)-4-(5-methylfuran-2-yl)pyrazolo[1,5-a][1,3,5]triazin-2-amine]	1.7 nM	5500 nM	>10^3	1230 nM	725^
Cc1ccc(-c2nc(N)nc3c(Cc4cccc(CO[C@H]5CCOC5)c4)cnn23)o1 [Example 24, (S)-4-(5-Methylfuran-2-yl)-8-(3-(((tetrahydrofuran-3-yl)oxy)methyl)benzyl)pyrazolo[1,5-a][1,3,5]triazin-2-amine]	1.2 nM	2040 nM	>10^3	2020 nM	>10^3
Cc1ccc(-c2nc(N)nc3c(Cc4cccc(COCC5CC5)n4)cnn23)o1 [Example 17, 8-((6-((Cyclopropylmethoxy)methyl)pyridin-2-yl)methyl)-4-(5-methylfuran-2-yl)pyrazolo[1,5-a][1,3,5]triazin-2-amine]	0.72 nM	1390 nM	>10^3		
Cc1ccc(-c2nc(N)nc3c(Cc4cccc(CN5CC6(COC6)C5)n4)cnn23)o1 [Example 7, 8-((6-((2-Oxa-6-azaspiro[3.3]heptan-6-yl)methyl)pyridin-2-yl)methyl)-4-(5-methylfuran-2-yl) pyrazolo[1,5-a][1,3,5]triazin-2-amine]	1.18 nM	7370 nM	>10^3	340 nM	288^
Cc1ccc(-c2nc(N)nc3c(Cc4cccc(CN5CCN(C)CC5)n4)cnn23)o1 [Example 8, 4-(5-Methylfuran-2-yl)-8-((6-((4-methylpiperazin-1-yl)methyl)pyridin-2-yl)methyl)pyrazolo[1,5-a][1,3,5]triazin-2-amine]	1.32 nM	6490 nM	>10^3	943 nM	714^
Cc1ccc(-c2nc(N)nc3c(Nc4cccc(CO[C@H]5CCOC5)c4)cnn23)o1 [Example 25, (S)-4-(5-Methylfuran-2-yl)-N^8-(3-(((tetrahydrofuran-3-yl)oxy)methyl)phenyl)pyrazolo[1,5-a][1,3,5]triazine-2,8-diamine]	1.64 nM	8150 nM	>10^3	2040 nM	>10^3
Nc1nc(-c2ccco2)n2ncc(Cc3cccc(F)c3)c2n1 [Example 34, 8-(3-Fluorobenzyl)-4-(furan-2-yl)pyrazolo[1,5-a][1,3,5]triazin-2-amine]	4.64 nM				
Nc1nc(-c2ccco2)n2ncc(Cc3ccccc3)c2n1 [Example 33, 8-Benzyl-4-(furan-2-yl)pyrazolo[1,5-a][1,3,5]triazin-2-amine]	4.14 nM			565 nM	136^
Cc1ccc(-c2nc(N)nc3c(Nc4ccccc4F)cnn23)o1 [Example 31, N^8-(2-Fluorophenyl)-4-(5-methylfuran-2-yl)pyrazolo[1,5-a][1,3,5]triazine-2,8-diamine]	3.53 nM				
Cc1ccc(-c2nc(N)nc3c(Cc4cccc(COS(N)(=O)=O)n4)cnn23)o1 [Example 11, (6-((2-Amino-4-(5-methylfuran-2-yl)pyrazolo[1,5-a][1,3,5]triazin-8-yl)methyl)pyridin-2-yl)methyl sulfamate]	1.86 nM			410 nM	220^
Cc1ccc(-c2nc(N)nc3c(Oc4ccccn4)cnn23)o1 [Example 23, 4-(5-Methylfuran-2-yl)-8-(pyridin-2-yloxy)pyrazolo[1,5-a][1,3,5]triazin-2-amine]	0.58 nM				
CCCc1cccc(Cc2cnn3c(-c4ccc(C)o4)nc(N)nc23)n1 [Example 20, 4-(5-Methylfuran-2-yl)-8-((6-propylpyridin-2-yl)methyl)pyrazolo[1,5-a][1,3,5]triazin-2-amine]	0.09 nM	280 nM	>10^3		
